In US9527066B2, “Dihydroxybipyridine complexes of ruthenium and iridium for water oxidation and hydrogenation” (The Board of Trustees of The University of Alabama, priority 2011, dated 2016):
Where two headings read alike, the source gives them in different places.

What was measured:
[1] = Water oxidation with sodium periodate, Clark electrode
Text: Chem. Soc., 2010, vol. 132, pp. 16017-16029:

[2] = for TOF / TON: 5 μM catalyst, 20 mM NaIO4 in 180 mM NaOAc; for Enhancement as pH change from 3 to 6: ratio pH 6 to pH 3
Protocol: Catalysts of the formula Cp*IrCl(n,n′-DHBP)]Cl according to the present invention were used for water oxidation at a variety of different pH levels. These catalysts were the same catalysts as the first three catalysts used in Example 6.5 μM catalyst with 20 mM NaIO4 in 180 mM NaOAc were employed.

[3] = 17 mM NaIO4 as oxidant, 25° C.
Text: Rates were most linear from 30 to 240 seconds. […] In this analysis, the slope corresponds to reaction order in Ir catalyst.

[4] = 5 μM catalyst; for 10 min: TOF / 10 min: TON / TOF: 20 mM NaIO4, pH 5.6, 25° C.; for TOF / Initial Rate: first 30 sec; for Initial Rate: 20 mM NaIO4, pH 5.6 NaOAc buffer, 25° C.
Protocol: Catalysts were used for water oxidation with NaIO4 as an oxidant.
20 mM of NaIO4 was added. The pH was 5.6 and NaOAc was used as a buffer. The vessel and catalyst solution were maintained at 25° C.

[5] = UV-Vis titration, Na2HPO4/HCl buffers pH 2.5-9.2; simultaneous removal of both ligand protons
Protocol: Approximately 100 mL of 0.1M Na2HPO4 was put into a beaker and stirred and the pH was recorded. 2 mL of 0.0000034M catalyst was put into 10 mL volumetric flasks (final concentration of Ir complex is 6.8 μM). 100 mL of 0.1M Na2HPO4 was titrated with 0.1M HCl until it reached the desired buffer pH (every 0.5 pH unit). At each desired buffer pH, 8 mL of the solution was put into the volumetric flasks. pH's used were as follows: 9.2, 8.0, 7.5, 7.0, 6.5, 6.0, 5.5, 5.0, 4.5, 4.0, 3.5, 3.0, 2.5. […] UV/Vis spectra for each solution were obtained (FIG. 5).

[6] = 5 μM catalyst
Protocol: A catalyst according to the present invention [Cp*Ir^III(DHBP)Cl]Cl was used for water oxidation with cerium (IV) ammonium nitrate (CAN) as the oxidant. The reaction progress was monitored by a Clark electrode to measure the increase in dissolved oxygen with time in a sealed vessel. For longer reaction times, the amount of oxygen that builds up in the headspace is significant and was measured by pressure transducers. In the first set of experiments, the concentration of catalyst was 5 μM and CAN=67 mM at pH=6.0. […] A prior art catalyst, catalyst 15(Cat 15 in FIG. 4, “Cat 15+67 mM CAN”) was used as a comparison. The prior art Cat 15 is represented by the formula taken from Blakemore, et al., “Half-sandwich iridium complexes for homogeneous water-oxidation catalysis,” J. Am. Chem. Soc., 2010, vol. 132, pp. 16017-16029:
In a second set of experiments, the concentration of catalyst was 5 μM. Cat5 was used in a buffered aqueous solution at pH 5.6 with 17 mM sodium periodate as the oxidant, as shown in green in FIG. 4.

[7] = Hydrogenation of acetophenone, comparison of five catalysts; conditions: 0.02 mmole catalyst, 85-90° C., 24 hours unless x=18, y=20, z=21 hours
Protocol: Five catalysts were used to catalyze hydrogenation of acetophenone. The first four are represented by the following structures:
These catalysts are represented as 1-4 in Table 4. The last catalyst is [(η^6-p-cymene)RuCl2]2. The reaction mixture contained 0.02 mmole catalyst, 10 mmole of NaO2CH or 2 mmole of KOH, 0.667 mmole of 1,3,4-trimethoxybenzene as internal standard, and 10 mL solvent. The reaction was carried out under N2 at 85-90° C. for 24 hours unless otherwise stated (x=18 hours, y=20 hours, z=21 hours). The percentage conversion was determined by ^1H-NMR as an average of two trials.

[8] = Hydrogenation of acetophenone under various conditions; conditions: 90° C., 16-17 hours
Protocol: [drawing 12] was used to catalyze hydrogenation of acetophenone under various conditions. For each mole of the substrate, 5 moles of a base is used. The reaction is carried out at 90° C. for 16-17 hours.

[9] = Hydrogenation of imines with H2 in THF; conditions: substrate N-benzylidene-methylamine
Protocol: (§1) [drawing 11] was used for hydrogenation of several different organic substrates. For ketones, the reaction was carried out by mixing 1 mole % of catalyst, 10:90 of MeOH:water and NaO2CH, and heated to reflux for 16-18 hours. For imines, the reaction was carried out by mixing 1 mole % of catalyst, THF, NEt3 base (5 molar %) and 75 psi H2(g), with heating to reflux for 48 hours. The catalyst provided a very high percentage conversion for ketones in water.

[10] = Hydrogenation of ketones with NaO2CH in MeOH:water; conditions: for % conversion: 1 mole % catalyst, 10:90 MeOH:water, NaO2CH, reflux 16-18 hours
Protocol: as §1

[11] = 5 μM catalyst, pH 5.6 buffered, 17 mM sodium periodate
[12] = first 30 seconds of reaction, 5 μM catalyst, 78 mM CAN, 25° C.
[13] = first 10 minutes of reaction, 5 μM catalyst, 78 mM CAN, 25° C.
[14] = substrate 2-methoxy-acetophenone
[15] = substrate 4-methoxy-acetophenone

Cc1c(C)c(C)[c-](C)c1C.Oc1cccc(-c2cccc(O)n2)n1.[Cl-].[Cl][Ir+2] [[Cp*IrCl(6,6′-DHBP)]Cl, [Cp*Ir(6,6′-DHBP)Cl]Cl]
TOF [1, 11]: 6.3 min⁻¹ | initial rate of oxygen generation [1, 11]: 31 µM/min | TOF ([1]; at higher NaIO4 concentrations): 18 min⁻¹ | TON ([1]; at higher NaIO4 concentrations, in 5 mM (so in the source)): 84 | TON ([1]; in 5 min, 5 μM catalyst, pH 5.6, 17 mM sodium periodate): 36 | TOF ([2]; pH = 3 for 10 minutes): 0.14 min⁻¹ | TON ([2]; pH = 3 for 10 minutes): 1.3 | TOF ([2]; pH = 6 for 10 minutes): 14 min⁻¹ | TON ([2]; pH = 6 for 10 minutes): 120 | Enhancement as pH change from 3 to 6 [2]: 92X | slope of ln(rate) vs. ln([catalyst]) (reaction order in Ir catalyst) [3]: 0.94 | 10 min: TOF [4]: 9.99 min⁻¹ | 10 min: TON [4]: 99.86 | TOF [4]: 10.04 ± 3 min⁻¹ | Initial Rate [4]: 50 ± 3 μM O2 min^−1 | pKa [5]: 4.6±0.1 | Initial Rate [12]: 75.00 ± 15 μmole O2 L^−1 min^−1 | TOF [12]: 15.07 ± 15 min⁻¹ | TOF [13]: 3.89 min⁻¹ | TON [13]: 38.93 | water oxidation (in words) ([6]; CAN=17 mM): does not oxidize water appreciably | TOF ([6]; CAN=67 mM, pH=6.0): 6.4 min⁻¹ | initial rate of oxygen evolution ([6]; CAN=67 mM, pH=6.0): 31 µM/min | TON ([6]; in 5 min, CAN=67 mM, pH=6.0): 14

Cc1ccc(C(C)C)cc1.Cc1ccc(C(C)C)cc1.[Cl][Ru][Cl].[Cl][Ru][Cl] [[p-cymRuCl2]2, [(η^6-p-cymene)RuCl2]2]
% conversion ([7]; KOH, ^1PrOH): 100% | % conversion ([7]; NaO2CH, 10/90 MeOH/H2O): 15% | % conversion ([7]; NaO2CH, 50/50 MeOH/H2O): 13% | % conversion ([7]; NaO2CH, H2O): 13%

Cc1c(C)c(C)[c-](C)c1C.[Cl-].[Cl-].[Ir+3].c1ccc(-c2ccccn2)nc1 [[Cp*IrCl(bipy)]Cl, reference compound]
10 min: TOF [4]: 0.064 min⁻¹ | 10 min: TON [4]: 0.64 | TOF [4]: 0 ± 3 min⁻¹ | Initial Rate [4]: 0 ± 3 μM O2 min^−1 | Initial Rate (as stated in text of Example 5): 72±3 mole O2 L^−1 s^−1 | turnover frequency (TOF) (as stated in text of Example 5): 14.4±0.7

Cc1c(C)c(C)[c-](C)c1C.[Cl-].[Cl][Ir+2].c1ccc(-c2ccccn2)nc1 [Cat15, reference compound]
activity in water oxidation (in words) ([1]; 5 μM catalyst, pH 5.6, 17 mM oxidant ("under these conditions")): not active

Cc1ccc(C(C)C)cc1.Oc1cccc(-c2cccc(O)n2)n1.[Cl-].[Cl][Ru+] [drawing 12]
% conversion ([8]; 1 mole % catalyst, NaO2CH, 10/90 MeOH/H2O): 97% | % conversion ([8]; 1 mole % catalyst, NaO2CH, 50/50 MeOH/H2O): 96% | % conversion ([8]; 1 mole % catalyst, NaO2CH, H2O): 31% | % conversion ([8]; 5 mole % catalyst, NaO2CH, H2O): 89% | % conversion ([8]; 5 mole % catalyst, NaO2CH/HO2CH, H2O): 89%

Cc1ccc(C(C)C)cc1.Oc1cccc(-c2cccc(O)n2)n1.[Cl-].[Cl][Ru+] [drawing 11]
Turnover frequency [9]: 0.63 h⁻¹ | Turnover number [9]: 30 | % conversion ([9]; 1 mole % catalyst, THF, NEt3, 75 psi H2, reflux 48 hours): 30% | Turnover frequency [10, 14]: 8.83 h⁻¹ | Turnover number [10, 14]: 53 | % conversion [10, 14]: 53% | Turnover frequency ([10]; substrate 2′-acetonaphtone): 13.50 h⁻¹ | Turnover number ([10]; substrate 2′-acetonaphtone): 81 | % conversion ([10]; substrate 2′-acetonaphtone): 81% | Turnover frequency ([10]; substrate 4-bromo-acetophenone): 16.17 h⁻¹ | Turnover number ([10]; substrate 4-bromo-acetophenone): 97 | % conversion ([10]; substrate 4-bromo-acetophenone): 97% | Turnover frequency [10, 15]: 10.71 h⁻¹ | Turnover number [10, 15]: 65 | % conversion [10, 15]: 65% | Turnover frequency ([10]; substrate acetophenone): 16.17 h⁻¹ | Turnover number ([10]; substrate acetophenone): 97 | % conversion ([10]; substrate acetophenone): 97%

Cc1c(C)c(C)[c-](C)c1C.Oc1ccnc(-c2cc(O)ccn2)c1.[Cl-].[Cl-].[Ir+3] [[Cp*IrCl(4,4′-DHBP)]Cl, [Cp*Ir(4,4′-dhbp)Cl]Cl]
TOF ([2]; pH = 3 for 10 minutes): 0 min⁻¹ | TON ([2]; pH = 3 for 10 minutes): 0 | TOF ([2]; pH = 6 for 10 minutes): 14 min⁻¹ | TON ([2]; pH = 6 for 10 minutes): 124 | Enhancement as pH change from 3 to 6 [2]: >124X | 10 min: TOF [4]: 11.87 min⁻¹ | 10 min: TON [4]: 118.70 | TOF [4]: 21.35 ± 3 min⁻¹ | Initial Rate [4]: 106.25 ± 3 μM O2 min^−1 | pKa [5]: 4.4±0.2 | Initial Rate [12]: 81.25 ± 12 μmole O2 L^−1 min^−1 | TOF [12]: 16.33 ± 12 min⁻¹ | TOF [13]: 4.33 min⁻¹ | TON [13]: 43.34
